Measurements taken from patent US20250296971A1, “GASTRIC INHIBITORY PEPTIDE RECEPTOR LIGANDS” (priority 2021, published 2025).
Where two headings read alike, the source gives them in different places. *1 amine or outer side, *2 acyl side, *3 side chain or, on linkers, in order; H or OH if unused. Where a SMILES comes first, the peptide text is derived from it. Bridges are numbered along the chain shown (N, C = ends). [ ]: non-standard residue; d: D form. The star is where a group is joined. X5 = NC(=O)[C@H](CCCCNC(=O)CN1CCN(CC(=O)O)CCN(CC(=O)O)CCN(CC(=O)O)CC1)NC(=O)CCC(=O)NCCCOCCOCCOCCCN*; X3 = O=C(O)CN1CCN(CC(=O)O)CCN(CC(=O)NCCCOCCOCCOCCCN*)CCN(CC(=O)O)CC1; NH(1-deoxy-D-glucityl) = OC[C@@H](O)[C@@H](O)[C@H](O)[C@@H](O)CN*; X9 = O=C(O)CN1CCN(CC(=O)O)CCN([C@H](CCC(=O)*)C(=O)O)CC1; Trp(5-Cl) = N[C@@H](Cc1c[nH]c2ccc(Cl)cc12)C(=O)O; Pyridine(2,6-diCH2) = c1cc(C[*:1])nc(C[*:2])c1; Trp(6-F) = N[C@@H](Cc1c[nH]c2cc(F)ccc12)C(=O)O; Trp(7-aza) = N[C@@H](Cc1c[nH]c2ncccc12)C(=O)O; Pro(4R-NH2) = N[C@H]1CN[C@H](C(=O)O)C1; 1Nal = N[C@@H](Cc1cccc2ccccc12)C(=O)O; mXylylene = c1cc(C[*:1])cc(C[*:2])c1; Glutaryl = O=C(CCCC(=O)[*:2])[*:1]; X7 = c1cc(CSCCN[*:2])cc(C[*:1])c1; X1 = O=C(CN1CCC(N[*:1])CC1)[*:2]; Suc = O=C(CCC(=O)[*:2])[*:1]; Ac6c = NC1(C(=O)O)CCCCC1; Api = NC1(C(=O)O)CCNCC1; Aib = CC(C)(N)C(=O)O

Target: T1, GIPR (CHO-K1-hGIPR cells) (Homo sapiens, UniProt P48546)
T1 construct: host or cells: CHO-K1
T1 sequence (P48546 22-466): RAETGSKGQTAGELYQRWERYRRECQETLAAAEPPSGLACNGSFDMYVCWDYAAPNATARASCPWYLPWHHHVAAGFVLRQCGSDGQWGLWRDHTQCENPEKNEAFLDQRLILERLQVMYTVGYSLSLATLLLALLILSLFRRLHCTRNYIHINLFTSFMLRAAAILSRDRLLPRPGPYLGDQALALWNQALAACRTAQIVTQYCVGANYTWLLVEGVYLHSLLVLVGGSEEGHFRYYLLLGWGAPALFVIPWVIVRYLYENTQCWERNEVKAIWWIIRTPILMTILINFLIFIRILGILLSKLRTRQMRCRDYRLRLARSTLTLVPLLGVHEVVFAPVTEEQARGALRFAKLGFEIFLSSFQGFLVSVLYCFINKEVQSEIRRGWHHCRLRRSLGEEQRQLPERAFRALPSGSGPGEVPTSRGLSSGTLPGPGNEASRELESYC
Assay: FACS binding assay
Details: read-out: pIC50 Category (converted)
Outline: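 Median fluorescence in the APC channel, measured on washed CHO-K1 cells overexpressing human GIPR, was fitted by four-parameter logistic regression against peptide concentration to yield EC50 or IC50 values. Secondary labelling used APC-streptavidin (1 μg/mL, 30 min, ice).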

[1] = competition with 20 nM GIP-057, 4° C. for 1 hour
[2] = competition with 20 nM GIP-057, 4° C., 1 hour

Row | SMILES | IC50 [1] [nM] | IC50 [2] [nM]
1 | CC[C@H](C)[C@@H]1NC(=O)[C@H](CC(C)C)NC(=O)[C@H](C)NC(=O)[C@@H](NC(=O)[C@H](CC(C)C)NC(=O)[C@H](CCC(=O)O)NC(=O)[C@@H]2CCCN2C(=O)[C@H](Cc2c[nH]c3ccccc23)NC(=O)[C@@H](Cc2c[nH]c3ccccc23)NC(=O)[C@H](CC(=O)O)NC(=O)[C@H](Cc2ccc(O)cc2)NC(=O)[C@@H](N)CCSC)CSCc2cccc(c2)CSC[C@@H](C(N)=O)NC1=O [GIP-308, H-Met-Tyr-Asp-trp-Trp-Pro-Glu-Leu-[Cys(3MeBn)-Ala-Leu-Ile-Cys]-NH2] (H-MYD[dW]WPELCALIC-NH2; linker 9-13 via mXylylene) | 100 to 794 | 
2 | CC[C@H](C)[C@@H]1NC(=O)[C@H](CC(C)C)NC(=O)C(C)(C)NC(=O)[C@@H](NC(=O)[C@@H](CC(C)C)NC(=O)[C@H](CCC(=O)O)NC(=O)[C@@H]2CCCN2C(=O)[C@H](Cc2cccc3ccccc23)NC(=O)[C@H](Cc2c[nH]c3ncccc23)NC(=O)[C@H](CC(=O)O)NC(C)=O)CSCc2cccc(c2)CSC[C@@H](C(=O)NCCCOCCOCCOCCCNC(=O)CCC(=O)N[C@@H](CCCCNC(=O)CN2CCN(CC(=O)O)CCN(CC(=O)O)CCN(CC(=O)O)CC2)C(N)=O)NC1=O [GIP-303, Ac-Asp-7Nw-1Ni-Pro-Glu-leu-[Cys(3MeBn)-Aib-Leu-Ile-Cys]-Ttds-Lys(DOTA)-NH2] (Ac-D[Trp(7-aza)][1Nal]PE[dL]C[Aib]LIC-X5; linker 7-11 via mXylylene) | > 1000 | 
3 | CC[C@H](C)[C@@H]1NC(=O)[C@H](CC(C)C)NC(=O)C2(CCN(C(=O)CC[C@H](C(=O)O)N3CCN(CC(=O)O)CCN(CC(=O)O)CC3)CC2)NC(=O)[C@@H](NC(=O)[C@@H](CC(C)C)NC(=O)[C@H](CCC(=O)O)NC(=O)[C@@H]2C[C@@H](N)CN2C(=O)[C@H](Cc2c[nH]c3ccc(Cl)cc23)NC(=O)[C@H](Cc2c[nH]c3ccccc23)NC(=O)[C@H](CC(=O)O)NC(=O)CCCC(=O)NC[C@H](O)[C@@H](O)[C@H](O)[C@H](O)CO)CSCc2cccc(n2)CSC[C@@H](C(=O)NC2CCN(CC(=O)N[C@H](CCC(=O)NC[C@H](O)[C@@H](O)[C@H](O)[C@H](O)CO)C(N)=O)CC2)NC1=O [GIP-028, AGLU-Glutar-Asp-Trp-5Clw-Tap-Glu-leu-[Cys(2Lut)-Apc(NODAGA)-Leu-Ile-Cys]-APAc-glu(AGLU)-NH2] ({NH(1-deoxy-D-glucityl)-Glutaryl}-DW[Trp(5-Cl)][Pro(4R-NH2)]E[dL]C[Api](X9)LIC[X1][dE](NH(1-deoxy-D-glucityl))-NH2; linker 7-11 via Pyridine(2,6-diCH2)) |  | < 10

Now from value to compound:

Row | IC50 [1] [nM] | IC50 [2] [nM] | SMILES
4 |  | < 10 | CC[C@H](C)[C@@H]1NC(=O)[C@H](CC(C)C)NC(=O)C2(CCCCC2)NC(=O)[C@@H](NC(=O)[C@@H](CC(C)C)NC(=O)[C@H](CCC(=O)O)NC(=O)[C@@H]2CCCN2C(=O)[C@H](Cc2c[nH]c3ccc(Cl)cc23)NC(=O)[C@H](Cc2c[nH]c3ccccc23)NC(=O)[C@H](CC(=O)O)NC(=O)CCC(=O)NCCCOCCOCCOCCCNC(=O)CN2CCN(CC(=O)O)CCN(CC(=O)O)CCN(CC(=O)O)CC2)CSCc2cccc(c2)CSCCNC1=O [GIP-086, DOTA-Ttds-Asp-Trp-5Clw-Pro-Glu-leu-[Cys(3MeBn)-Egz-Leu-Ile-AET]] ({X3-Suc}-DW[Trp(5-Cl)]PE[dL]C[Ac6c]LI; linker 7-C via X7)
5 | > 1000 |  | CC(=O)N[C@@H](CC(=O)O)C(=O)N[C@@H](Cc1c[nH]c2ccccc12)C(=O)N[C@@H](Cc1cccc2ccccc12)C(=O)N1CCC[C@H]1C(=O)N[C@@H](CCC(=O)O)C(=O)N[C@H](CC(C)C)C(=O)N[C@H]1CSCc2cccc(c2)CSC[C@@H](C(=O)NCCCOCCOCCOCCCNC(=O)CCC(=O)N[C@@H](CCCCNC(=O)CN2CCN(CC(=O)O)CCN(CC(=O)O)CCN(CC(=O)O)CC2)C(N)=O)NC(=O)[C@@H](C(C)C)NC(=O)[C@H](CC(C)C)NC(=O)[C@H](C)NC1=O [GIP-300, Ac-Asp-Trp-1Ni-Pro-Glu-leu-[Cys(3MeBn)-Ala-Leu-val-Cys]-Ttds-Lys(DOTA)-NH2] (Ac-DW[1Nal]PE[dL]CAL[dV]C-X5; linker 7-11 via mXylylene)
6 |  | 10 to 79.4 | CC[C@H](C)[C@@H]1NC(=O)[C@H](CC(C)C)NC(=O)C(C)(C)NC(=O)[C@@H](NC(=O)[C@@H](CC(C)C)NC(=O)[C@H](CCC(=O)O)NC(=O)[C@@H]2CCCN2C(=O)[C@H](Cc2c[nH]c3cc(F)ccc23)NC(=O)[C@H](Cc2c[nH]c3ccccc23)NC(=O)[C@H](CC(=O)O)NC(C)=O)CSCc2cccc(c2)CSC[C@@H](C(=O)NCCCOCCOCCOCCCNC(=O)CCC(=O)N[C@@H](CCCCNC(=O)CN2CCN(CC(=O)O)CCN(CC(=O)O)CCN(CC(=O)O)CC2)C(N)=O)NC1=O [GIP-140, Ac-Asp-Trp-6Fw-Pro-Glu-leu-[Cys(3MeBn)-Aib-Leu-Ile-Cys]-Ttds-Lys(DOTA)-NH2] (Ac-DW[Trp(6-F)]PE[dL]C[Aib]LIC-X5; linker 7-11 via mXylylene)
